Patent US9539223B2, “Methods for treating bacterial infections” (Neoculi Pty Ltd., priority 2013, dated 2017)
In brackets after ≈: the same amount, converted by molar mass.

Columns and labels:
[1] = test system: S. aureus ATCC 29213; test: ATP release assay (CellTiter-Glo); type: cell-based, Staphylococcus aureus; conditions: at the MIC ([…] μg/ml), 30 min exposure
From the text: The CellTiter-Glo Luminescent Cell Viability Assay (Promega) was utilized to measure the leakage of ATP from bacteria. […] The negative control received 2% DMSO, which represented the final DMSO concentration in each assay. […] Results were expressed as ATP concentration released to the medium (μM).

[2] = test system: RNA synthesis in S. aureus ATCC 29213; test: RNA synthesis, [3H] uridine incorporation; type: cell-based, Staphylococcus aureus; conditions: 0.25 to 8-fold the MIC
Protocol: Cells were grown at 35° C. overnight on Trypticase Soy agar. A colony from the plate was used to inoculate 10 ml of Mueller Hinton broth II (MHBII), and the culture was grown to early exponential growth phase (OD600=0.2 to 0.3) while incubating in a shaker at 35° C. and 200 rpm.
When cells reached early exponential phase, 100 μl of culture was added to triplicate wells containing various concentrations of test compound or control antibiotics (5 μl) at 20× the final concentration in 100% DMSO. A 5% DMSO treated culture served as the “no drug” control for all experiments. Cells were added in MHBII at 105% to account for the volume of drug added to each reaction or in M9 minimal medium for protein synthesis reactions. Following 15 min incubation at room temperature, either [3H] thymidine (DNA synthesis), [3H] uridine (RNA synthesis) or [3H] leucine (protein synthesis) was added at 0.5-1.0 μCi per reaction, depending on the experiment. Reactions were allowed to proceed at room temperature for 15-30 min and then stopped by adding 12 μl of cold 5% trichloroacetic acid (TCA) or 5% TCA/2% casamino acids (protein synthesis only). […] After washing three times with 5 ml of cold 5% TCA, the filters were rinsed two times with 5 ml 100% ethanol, allowed to dry, and then counted using a Beckman LS3801 liquid scintillation counter.

[3] = test system: MRSA isolates; test: MBC test (CLSI), MRSA isolates; type: cell-based, Staphylococcus aureus
Protocol: (§1) There was an obvious reduction in the number of bacteria with increasing concentration, but growth was present compared with no growth for S. aureus. […] Each MBC test was performed in duplicate.

[4] = test system: VRE isolates; test: MBC test (CLSI), VRE isolates; type: cell-based, Enterococcus spp.; set-up: key: M = many bacteria growing on the plate (too many to count)
Protocol: as §1

[5] = Precipitation of NCL812 in assay media; type: physicochemical
[6] = test system: E. coli ATCC 25922 spheroplasts; test: Activity against spheroplasts (colony forming units over 24 hours); type: cell-based, Escherichia coli
Protocol: E. coli ATCC 25922 was grown overnight on agar at 37° C. Two colonies from the overnight incubation were used to inoculate ˜20 ml of cation adjusted mueller hinton broth. Inoculated broth was incubated for 18 hours at 37° C. […] Formation of spheroplasts was checked using a phase contrast microscope.
Fifty microliters of DMSO only was added to the control test tube. Spheroplasts were incubated for 24 hours with 20 μl samples taken at 0, 2, 4, 6, 8 and 24 hours. Twenty microliter samples were serially diluted 1:10 and 10 ul samples of appropriate dilutions were spotted in triplicate onto brain heart infusion agar. Brain heart infusion agar was incubated at 37° C. for 48 hours and colonies were counted at 24 and 48 hours to determine the number of colony forming units.

[7] = test system: Staphylococcus pseudintermedius; test: MIC testing (CLSI), S. pseudintermedius isolates; type: cell-based

SMILES: N=C(N/N=C/c1ccc(Cl)cc1)N/N=C/c1ccc(Cl)cc1 [NCL812, 1,2-bis[(E)-(4-chlorophenyl)methylideneamino]guanidine]
- maximal release of ATP [1]: 0.33 µM
- inhibition of RNA synthesis [2]: very similar to the DNA synthesis study
- MBC test: growth on Sheep Blood Agar ([3]; MRSA 1, 4 μg/ml): 0
- MBC test: growth on Sheep Blood Agar ([3]; MRSA 1, 8 μg/ml): 0
- MBC test: growth on Sheep Blood Agar ([3]; MRSA 1, 16 μg/ml): 0
- MBC test: growth on Sheep Blood Agar ([3]; MRSA 1, 32 μg/ml): 0
- MBC test: growth on Sheep Blood Agar ([3]; MRSA 3, 4 μg/ml): 0
- MBC test: growth on Sheep Blood Agar ([3]; MRSA 3, 16 μg/ml): 0
- MBC test: growth on Sheep Blood Agar ([3]; MRSA 3, 32 μg/ml): 0
- MBC test: growth on Sheep Blood Agar ([3]; MRSA 4, 4 μg/ml): 0
- MBC test: growth on Sheep Blood Agar ([3]; MRSA 4, 8 μg/ml): 0
- MBC test: growth on Sheep Blood Agar ([3]; MRSA 4, 16 μg/ml): 0
- MBC test: growth on Sheep Blood Agar ([3]; MRSA 4, 32 μg/ml): 0
- MBC test: growth on Sheep Blood Agar ([3]; MRSA 5, 4 μg/ml): 0
- MBC test: growth on Sheep Blood Agar ([3]; MRSA 5, 8 μg/ml): 0
- MBC test: growth on Sheep Blood Agar ([3]; MRSA 5, 16 μg/ml): 0
- MBC test: growth on Sheep Blood Agar ([3]; MRSA 5, 32 μg/ml): 0
- MBC test: growth on Sheep Blood Agar ([3]; MRSA 6, 4 μg/ml): 0
- MBC test: growth on Sheep Blood Agar ([3]; MRSA 6, 8 μg/ml): 0
- MBC test: growth on Sheep Blood Agar ([3]; MRSA 6, 16 μg/ml): 0
- MBC test: growth on Sheep Blood Agar ([3]; MRSA 6, 32 μg/ml): 0
- MBC test: growth on Sheep Blood Agar ([3]; MRSA 7, 4 μg/ml): 0
- MBC test: growth on Sheep Blood Agar ([3]; MRSA 7, 16 μg/ml): 0
- MBC test: growth on Sheep Blood Agar ([3]; MRSA 7, 32 μg/ml): 0
- MBC test: growth on Sheep Blood Agar ([3]; MRSA 8, 8 μg/ml): 0
- MBC test: growth on Sheep Blood Agar ([3]; MRSA 8, 16 μg/ml): 0
- MBC test: growth on Sheep Blood Agar ([3]; MRSA 8, 32 μg/ml): 0
- MBC test: growth on Sheep Blood Agar ([3]; MRSA 9, 4 μg/ml): 0
- MBC test: growth on Sheep Blood Agar ([3]; MRSA 9, 8 μg/ml): 0
- MBC test: growth on Sheep Blood Agar ([3]; MRSA 9, 16 μg/ml): 0
- MBC test: growth on Sheep Blood Agar ([3]; MRSA 9, 32 μg/ml): 0
- MBC test: growth on Sheep Blood Agar ([3]; MRSA 10, 4 μg/ml): 0
- MBC test: growth on Sheep Blood Agar ([3]; MRSA 10, 8 μg/ml): 0
- MBC test: growth on Sheep Blood Agar ([3]; MRSA 10, 16 μg/ml): 0
- MBC test: growth on Sheep Blood Agar ([3]; MRSA 10, 32 μg/ml): 0
- MBC test: growth on Sheep Blood Agar ([3]; MRSA 11, 8 μg/ml): 0
- MBC test: growth on Sheep Blood Agar ([3]; MRSA 11, 16 μg/ml): 0
- MBC test: growth on Sheep Blood Agar ([3]; MRSA 11, 32 μg/ml): 0
- MBC test: growth on Sheep Blood Agar ([3]; MRSA 12, 4 μg/ml): 0
- MBC test: growth on Sheep Blood Agar ([3]; MRSA 12, 16 μg/ml): 0
- MBC test: growth on Sheep Blood Agar ([3]; MRSA 12, 32 μg/ml): 0
- MBC test: growth on Sheep Blood Agar ([3]; MRSA 13, 4 μg/ml): 0
- MBC test: growth on Sheep Blood Agar ([3]; MRSA 13, 8 μg/ml): 0
- MBC test: growth on Sheep Blood Agar ([3]; MRSA 13, 16 μg/ml): 0
- MBC test: growth on Sheep Blood Agar ([3]; MRSA 13, 32 μg/ml): 0
- MBC test: growth on Sheep Blood Agar ([3]; MRSA 14, 4 μg/ml): 0
- MBC test: growth on Sheep Blood Agar ([3]; MRSA 14, 8 μg/ml): 0
- MBC test: growth on Sheep Blood Agar ([3]; MRSA 14, 16 μg/ml): 0
- MBC test: growth on Sheep Blood Agar ([3]; MRSA 14, 32 μg/ml): 0
- MBC test: growth on Sheep Blood Agar ([3]; MRSA 516, 4 μg/ml): 0
- MBC test: growth on Sheep Blood Agar ([3]; MRSA 516, 8 μg/ml): 0
- MBC test: growth on Sheep Blood Agar ([3]; MRSA 516, 16 μg/ml): 0
- MBC test: growth on Sheep Blood Agar ([3]; MRSA 516, 32 μg/ml): 0
- MBC test: growth on Sheep Blood Agar ([3]; MRSA 570, 4 μg/ml): 0
- MBC test: growth on Sheep Blood Agar ([3]; MRSA 570, 8 μg/ml): 0
- MBC test: growth on Sheep Blood Agar ([3]; MRSA 570, 16 μg/ml): 0
- MBC test: growth on Sheep Blood Agar ([3]; MRSA 570, 32 μg/ml): 0
- MBC test: growth on Sheep Blood Agar ([3]; MRSA 580, 4 μg/ml): 0
- MBC test: growth on Sheep Blood Agar ([3]; MRSA 580, 8 μg/ml): 0
- MBC test: growth on Sheep Blood Agar ([3]; MRSA 580, 16 μg/ml): 0
- MBC test: growth on Sheep Blood Agar ([3]; MRSA 580, 32 μg/ml): 0
- MBC test: growth on Sheep Blood Agar ([3]; MRSA 606, 4 μg/ml): 0
- MBC test: growth on Sheep Blood Agar ([3]; MRSA 606, 8 μg/ml): 0
- MBC test: growth on Sheep Blood Agar ([3]; MRSA 606, 16 μg/ml): 0
- MBC test: growth on Sheep Blood Agar ([3]; MRSA 606, 32 μg/ml): 0
- MBC test: growth on Sheep Blood Agar ([3]; MRSA 610, 4 μg/ml): 0
- MBC test: growth on Sheep Blood Agar ([3]; MRSA 610, 16 μg/ml): 0
- MBC test: growth on Sheep Blood Agar ([3]; MRSA 610, 32 μg/ml): 0
- MBC test: bacteria growing after 24 hours per ml of sample ([4]; VRE 12c, 64 μg/ml): M
- MBC test: bacteria growing after 24 hours per ml of sample ([4]; VRE 12c, […]): M
- MBC test: bacteria growing after 24 hours per ml of sample ([4]; VRE 14t, […]): M
- MBC test: bacteria growing after 24 hours per ml of sample ([4]; VRE 16c(dc), 64 μg/ml): M
- MBC test: bacteria growing after 24 hours per ml of sample ([4]; VRE 16c(dc), […]): M
- MBC test: bacteria growing after 24 hours per ml of sample ([4]; VRE 16c, 64 μg/ml): M
- MBC test: bacteria growing after 24 hours per ml of sample ([4]; VRE 16c, […]): M
- MBC test: bacteria growing after 24 hours per ml of sample ([4]; VRE 19t, […]): M
- MBC test: bacteria growing after 24 hours per ml of sample ([4]; VRE 23c, 64 μg/ml): M
- MBC test: bacteria growing after 24 hours per ml of sample ([4]; VRE 23c, […]): M
- MBC test: bacteria growing after 24 hours per ml of sample ([4]; VRE 25c, 64 μg/ml): M
- MBC test: bacteria growing after 24 hours per ml of sample ([4]; VRE 25c, […]): M
- MBC test: bacteria growing after 24 hours per ml of sample ([4]; VRE 26c(dc), 64 μg/ml): M
- MBC test: bacteria growing after 24 hours per ml of sample ([4]; VRE 26c(dc), […]): M
- Precipitation of NCL812 observed at ([5]; MIC plates in Mueller Hinton II Broth without inoculum): ≥ 8 µg/mL
- precipitation observed at ([5]; Mueller Hinton broth II (DNA and RNA synthesis assays), MIC […] μg/ml): 4 to 8 fold the MIC
- concentration with significant decrease in colony forming units over time [6]: ≥ 32 µg/mL
- MIC50 ([7]; Staphylococcus pseudintermedius, 23 S. pseudintermedius isolates): 2 µg/mL (≈ 5.98 µM)
- susceptibility based on MICs ([7]; all 23 isolates (MSSP and MRSP)): susceptible
